This is an account of results in ChEMBL document CHEMBL1201862, “PubChem BioAssay data set” (2004).

Some test systems named below: T47D; MDA-MB-231; HCC 2998; SNB-75; CCRF-CEM; MCF7; Malme-3M; TK-10; Hs-578T; HL-60; MOLT-4; M14; NCI-H226; SK-MEL-2; DU-145; MDA-MB-435.
Holding throughout (assay): growth of human tumour cells (NCI), 48 h

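Briefly, cells in 96-well plates were exposed to five compound concentrations for 48 h, and endpoints were estimated by linear interpolation. The concentration for 50% growth inhibition is given as GI50.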 Calls of active or inactive are those of the source. Cut-off read from the data, not from the text of the source: active = GI50 up to about 1.1 µM and inactive = higher.

On to `CCNc1cc2c(cc1O)CC[C@@H]1[C@@H]2CC[C@]2(C)[C@@H](O)CC[C@@H]12`, for which the GI50 in the assay on T47D is 6.04 µM (inactive); in the assay with MDA-MB-231 it was 10.5 µM (inactive); in the assay with HCC 2998, 1.02 µM (active); in the assay on SNB-75, 0.272 µM (active); in the assay on CCRF-CEM, 1.41 µM (inactive); in the assay on MCF7 it was 8.43 µM (inactive). The GI50 was 3.75 µM (inactive) with Malme-3M; 19.5 µM (inactive) in the assay on TK-10; 3.62 µM (inactive) in the assay on Hs-578T; 1.52 µM (inactive) in the assay with HL-60; 3.13 µM (inactive) with MOLT-4; 1.78 µM (inactive) in the assay on M14. In addition, the GI50 with NCI-H226 was 2.82 µM (inactive).
Consider `CCN(CC)C(=O)N1CN(c2ccccc2)C2(CCN(CCCC3(c4ccc(F)cc4)OCCO3)CC2)C1=O`, for which the GI50 is 14.8 µM (inactive) in the assay on SK-MEL-2; 5.9 µM (inactive) in the assay with T47D; 14.5 µM (inactive) in the assay with HCC 2998; 12.2 µM (inactive) with DU-145; 18.6 µM (inactive) in the assay on MDA-MB-435; 19.7 µM (inactive) with SNB-75. In addition, the GI50 with CCRF-CEM is 13.9 µM (inactive); with MCF7, 4.75 µM (inactive); with Malme-3M, 19.1 µM (inactive); with TK-10, 17.5 µM (inactive); with Hs-578T, 16.3 µM (inactive); with HL-60 it was 12.7 µM (inactive). Besides, the GI50 with MOLT-4 is 10.4 µM (inactive); in the assay on M14 it was 40.2 µM (inactive); in the assay on NCI-H226 it was 30.5 µM (inactive).
Consider `Nc1nc2c(ncn2Cc2ccc(CO)cc2)c(=O)[nH]1`, for which the GI50 in the assay on SK-MEL-2, in the assay on T47D, in the assay on MDA-MB-231, in the assay with DU-145, in the assay with MDA-MB-435 and in the assay with SNB-75 was > 100 µM (inactive) each time. Further, the GI50 is > 100 µM (inactive) in the assay on CCRF-CEM; > 100 µM (inactive) in the assay with MCF7; > 100 µM (inactive) in the assay on Malme-3M; > 100 µM (inactive) with TK-10; > 100 µM (inactive) in the assay with Hs-578T; 4.42 µM (inactive) in the assay on HL-60. In addition, the GI50 in the assay on MOLT-4, with M14 and in the assay with NCI-H226 was > 100 µM (inactive) each time.
Regarding `COc1ccc(/C=C2\NC(=S)N(CN3CCCCC3)C2=O)cc1`, the GI50 was > 100 µM (inactive) with SK-MEL-2; > 100 µM (inactive) in the assay with MDA-MB-231; 71 µM (inactive) in the assay with DU-145; 52.7 µM (inactive) with MDA-MB-435; 21 µM (inactive) in the assay with SNB-75; 39.5 µM (inactive) with CCRF-CEM. Further, the GI50 in the assay on MCF7 was 21.8 µM (inactive); in the assay with Malme-3M it was 30.3 µM (inactive); in the assay with TK-10, 83.6 µM (inactive); in the assay on Hs-578T, 17.8 µM (inactive); in the assay with MOLT-4 it was 28.6 µM (inactive); in the assay with M14 it was 50.7 µM (inactive). For the same compound, the GI50 with NCI-H226 is 42.2 µM (inactive).
On to `FC(F)(F)c1nc2cc(SSc3cc4nc(C(F)(F)F)[nH]c4cc3Cl)c(Cl)cc2[nH]1`, for which the GI50 was > 100 µM (inactive) in the assay with SK-MEL-2; > 100 µM (inactive) in the assay on MDA-MB-231; > 100 µM (inactive) in the assay on HCC 2998; > 100 µM (inactive) in the assay on DU-145; > 100 µM (inactive) in the assay with MDA-MB-435; 65.5 µM (inactive) in the assay on MCF7. Moreover, the GI50 was 82.8 µM (inactive) with Malme-3M; > 100 µM (inactive) in the assay with TK-10; > 100 µM (inactive) in the assay with Hs-578T; > 100 µM (inactive) in the assay with HL-60; > 100 µM (inactive) in the assay on MOLT-4; > 100 µM (inactive) in the assay on M14. Further, the GI50 with NCI-H226 was 53.3 µM (inactive).
For the compound `CCC1CCN=C(Cn2cc(C)c(=O)[nH]c2=O)N1` (configuration not stated), the GI50 in the assay on SK-MEL-2, with T47D, with MDA-MB-231, in the assay on HCC 2998, in the assay with DU-145 and in the assay on SNB-75 was > 100 µM (inactive) each time. The GI50 in the assay with CCRF-CEM was 0.201 µM (active); with MCF7, > 100 µM (inactive); with Malme-3M, > 100 µM (inactive); in the assay with TK-10 it was > 100 µM (inactive); in the assay with Hs-578T, > 100 µM (inactive); in the assay with M14, > 100 µM (inactive). The GI50 in the assay with NCI-H226 is > 100 µM (inactive).
Take `CCOC(=O)CCSS(=O)(=O)c1ccccc1`: the GI50 with SK-MEL-2, in the assay with T47D, with HCC 2998, with DU-145, in the assay with MDA-MB-435 and with SNB-75 was > 100 µM (inactive) in each case. Further, the GI50 in the assay with CCRF-CEM was 28.4 µM (inactive); with MCF7, 28.6 µM (inactive); in the assay with TK-10, > 100 µM (inactive); in the assay with HL-60, 35.8 µM (inactive); with M14 it was 64.4 µM (inactive); in the assay on NCI-H226 it was > 100 µM (inactive).
Consider `N#Cc1cc(C#N)c(N)nc1N`, for which the GI50 with SK-MEL-2 was > 100 µM (inactive); with MDA-MB-231, > 100 µM (inactive); in the assay on HCC 2998, > 100 µM (inactive); in the assay on DU-145 it was 43.6 µM (inactive); in the assay on MDA-MB-435, > 100 µM (inactive); in the assay on SNB-75, > 100 µM (inactive). Moreover, the GI50 in the assay with CCRF-CEM, in the assay on MCF7, in the assay on Malme-3M, in the assay with TK-10, with Hs-578T and with HL-60 was > 100 µM (inactive) each time. The GI50 with MOLT-4, with M14 and with NCI-H226 was > 100 µM (inactive) in each case.
Consider `Oc1cc(-c2ccc(Cl)cc2)cn2c1nc1ccccc12`, for which the GI50 in the assay with T47D was > 100 µM (inactive); in the assay on MDA-MB-231, > 100 µM (inactive); in the assay on DU-145 it was > 100 µM (inactive); with MDA-MB-435, 2.2 µM (inactive); in the assay on SNB-75 it was 16.1 µM (inactive); with MCF7, > 100 µM (inactive). The GI50 with Malme-3M was > 100 µM (inactive); with TK-10, > 100 µM (inactive); in the assay with Hs-578T it was 36.6 µM (inactive); with HL-60, 2.66 µM (inactive); in the assay on M14, > 100 µM (inactive); in the assay with NCI-H226, > 100 µM (inactive).
As for `COc1ccc2c(c1)C(=O)CCc1cc(OC)c(OC)c(OC)c1-2`, the GI50 was 0.0818 µM (active) with SK-MEL-2; 0.166 µM (active) in the assay with MDA-MB-231; 0.0412 µM (active) with HCC 2998; 0.0335 µM (active) in the assay with DU-145; 0.0204 µM (active) in the assay on MDA-MB-435; 0.0512 µM (active) in the assay on CCRF-CEM. Moreover, the GI50 was < 0.01 µM (active) with MCF7; 0.0304 µM (active) with Malme-3M; 15.1 µM (inactive) in the assay with TK-10; 0.0243 µM (active) in the assay on Hs-578T; 0.0564 µM (active) with MOLT-4; 0.0347 µM (active) with M14. For the same compound, the GI50 in the assay on NCI-H226 was 0.0258 µM (active).
With `N#C/N=C1/c2ccccc2/C(=N/C#N)c2cc(CO)ccc21`, the GI50 is 61.2 µM (inactive) in the assay with SK-MEL-2; 31.6 µM (inactive) with T47D; 71.4 µM (inactive) with MDA-MB-231; 26 µM (inactive) in the assay on DU-145; 27.4 µM (inactive) in the assay with MDA-MB-435; 24.2 µM (inactive) in the assay with SNB-75. For the same compound, the GI50 was 30.6 µM (inactive) in the assay on MCF7; 27.3 µM (inactive) with TK-10; 69.2 µM (inactive) with Hs-578T; 21.6 µM (inactive) with HL-60; 16.4 µM (inactive) in the assay with MOLT-4; 48.2 µM (inactive) with M14. Also, the GI50 with NCI-H226 is 37.8 µM (inactive).
With `COc1ccc(-n2c(N)c(C#N)[nH]c2=O)cc1`, the GI50 with SK-MEL-2, in the assay with T47D, in the assay on MDA-MB-231, in the assay on HCC 2998, in the assay on DU-145 and with MDA-MB-435 was > 10 µM (inactive) throughout. The GI50 with SNB-75, in the assay on CCRF-CEM, in the assay on Malme-3M, in the assay on TK-10, in the assay with Hs-578T and with HL-60 was > 10 µM (inactive) throughout. Further, the GI50 in the assay on MOLT-4, in the assay on M14 and in the assay with NCI-H226 was > 10 µM (inactive) throughout.
With `O=C(O)C1CCCN1Cc1ccc2c(c1)OCO2` (configuration not stated), the GI50 in the assay with SK-MEL-2 was > 100 µM (inactive); in the assay with T47D it was > 100 µM (inactive); in the assay on MDA-MB-231, > 100 µM (inactive); with DU-145, > 100 µM (inactive); with MDA-MB-435, > 100 µM (inactive); in the assay with SNB-75, 18.4 µM (inactive). Besides, the GI50 in the assay on MCF7, in the assay with Malme-3M, with TK-10, with Hs-578T, in the assay on MOLT-4 and with M14 was > 100 µM (inactive) each time. The GI50 in the assay with NCI-H226 was > 100 µM (inactive).
As for `CCCSc1ccc2[nH]c(N3C(=O)/C(=C/c4ccco4)N=C3c3ccccc3)cc2c1`, the GI50 is 10.3 µM (inactive) in the assay with SK-MEL-2; 27.6 µM (inactive) in the assay on T47D; 18.3 µM (inactive) in the assay with HCC 2998; > 50 µM (inactive) in the assay on DU-145; 8.71 µM (inactive) in the assay with MDA-MB-435; 44 µM (inactive) in the assay with SNB-75. The GI50 in the assay with CCRF-CEM was 19.3 µM (inactive); in the assay on MCF7, 15.8 µM (inactive); in the assay with Malme-3M, > 50 µM (inactive); with HL-60 it was 11.9 µM (inactive); with MOLT-4, 17.1 µM (inactive); in the assay with M14, 21.6 µM (inactive).
For `O=S(=O)(O)c1cc(/N=N/c2c(O)ccc3ccccc23)ccc1/C=C/c1ccc(/N=N/c2c(O)ccc3ccccc23)cc1S(=O)(=O)O`, the GI50 was > 100 µM (inactive) in the assay with SK-MEL-2; > 100 µM (inactive) with T47D; 40.3 µM (inactive) in the assay on MDA-MB-231; > 100 µM (inactive) with MDA-MB-435; > 100 µM (inactive) in the assay on SNB-75; 26.9 µM (inactive) in the assay with Malme-3M. Further, the GI50 in the assay with TK-10 is > 100 µM (inactive); in the assay with Hs-578T it was > 100 µM (inactive); in the assay with M14, 99.5 µM (inactive); in the assay with NCI-H226 it was > 100 µM (inactive).
